Test results published in article PMC10319809, “Chronic UCN2 treatment desensitizes CRHR2 and improves insulin sensitivity” (Nature Communications, 2023).
Several values for one entry are separate records, joined by “and”; a condition that tells them apart may be missing. Identical values can stand only once. Where no end group is shown, it is not given here.

Legend:
male mice [1] = assay: Glucose tolerance test (oGTT / IPGTT), blood glucose; format: in vivo, mouse
Protocol: (§1) All metabolic tests were performed using standard protocols on male littermates (aged: 10–14 weeks). For glucose tolerance tests (GTTs), animals were fasted for 8 h with ad libitum access to water. Fasting glucose measurements were taken before […] oral glucose dose. Blood glucose measurements were taken via tail nick using the AlphaTRAK 2 Glucose Monitoring System (Zoetis, Parsippany-Troy Hills, NJ) at 10, 30, 60, and 120 min after dose. Blood was collected for insulin measurement in EDTA tubes (Becton, Dickinson and Company, Franklin Lakes, NJ) and centrifuged to collect plasma (2000 g for 10 min at 4 °C), which was stored at −80 °C until analysis at 10, 30, 60, and 120 min after dose. Insulin levels were measured using an Ultrasensitive Mouse Insulin ELISA (ALPCO, Salem, NH), according to manufacturer’s instructions. For insulin tolerance tests (ITTs), animals were fasted for 8 h and blood glucose was measured before (0 min) and at 30, 60, 90, and 120 min following IP injection of 0.75 IU/kg of insulin (Humulin R, Eli Lilly, Indianapolis, IN). […]

male mice [2] = assay: Plasma insulin during glucose tolerance test; format: in vivo, mouse; conditions: 1 mg/kg IP UCN2
Protocol: as §1

male mice [3] = assay: Insulin tolerance test (ITT), blood glucose; format: in vivo, mouse; design: dose or concentration left out as unconfirmed; conditions: 0.05, 0.2
Protocol: as §1

[4] = test system: heart, white adipose tissue; assay: In vivo glucose uptake, fluoro-deoxyglucose (FDG), heart and subcutaneous white adipose tissue; design: species or system mouse; conditions: for Glucose Uptake Rate, subcutaneous white adipose tissue (FDG): individual animals (Fig. 2H), 1 mg/kg
Protocol: Mice were fasted 5 h, dosed IP with 1 mg/kg UCN2 or vehicle. 20 min after dosing mice were injected with 2 mg/kg fluoro-deoxyglucose (FDG) +/− 0.75 IU insulin via tail vein. 15 min after the FDG dose animals were anesthetized and tissues and blood were collected and snap frozen. Plasma and tissues were analyzed for FDG, FDG-monophosphate, glucose, and glucose-monophosphate. The quantification of the analytes was performed by liquid chromatography tandem mass spectrometry (LC-MS/MS) using selected reaction monitoring (SRM) on an Applied Biosystems SCIEX (Framingham, MA, USA) 5500 QTrap mass spectrometer operated in negative ionization mode. Chromatography was achieved on a Shimadzu (Kyoto, Japan) HPLC system under reversed phase LC conditions with gradient elution. Calibration standards were prepared in analyte-free matrix, while quality control samples were prepared in pooled tissue homogenate by standard addition. Experimental tissue samples were mechanically homogenized in a methanol solution followed by evaporation under nitrogen and resuspension with injection solvent prior to analysis on the LC-MS/MS system.

mice = assay: Food intake studies; format: in vivo, mouse
Protocol: For acute studies, animals were singly housed and injected IP with saline or 1 mg/kg UCN2 (source). Food intake for the next 24 h was determined by measuring food weight in ceramic bowls within the cage. For the chronic studies, animals were singly housed and injected with Vehicle, EGFP.AAV, or UCN2.AAV. Food weight was measured in ceramic bowls every 24 h for 7 days.

[5] = test system: AKT1S1, IRS1, AKT phosphorylation; assay: Ex vivo soleus muscle insulin signaling (Western blot); design: species or system mouse; conditions: 100 nM UCN2 pre-treatment, n = 2
Protocol: Soleus muscle was removed from fed animals anesthetized by an intraperitoneal injection of pentobarbital (10 mg/100 g body weight). Dissected soleus muscles were suspended at 5 mN of tension in incubation chambers (Model 610/820 M, Danish Myo-Technology, Denmark) containing Krebs-Ringer-Buffer supplemented with 0.1% BSA, 2 mM pyruvate and 8 mM Mannitol. During the entire incubation period the KRB was maintained at 30 °C and oxygenated with 95% O2 and 5% CO2. Following 10 min of pre-incubation muscles were incubated in Krebs buffer +/− 100 nM (−7.0 log[M]) UCN2. At the next time point, 30 min later, muscles were placed in baths containing Krebs buffer +/− 100 nM (−7.0 [M]) UCN2. At the next time point, 15 min later, muscles were placed in baths containing Krebs buffer +/− 100 nM (−7.0 log[M]) UCN2 + /− 60 nM Insulin (Actrapid, Novo Nordisk, Bagsvaerd, Denmark) for 15 min. For the ex vivo glucose uptake studies, 1 mM [^3H]2-deoxyglucose (Perkin-Elmer) and 7 mM [^14C]mannitol (Perkin-Elmer) was also added at this time. Muscles that were in saline in the first bath, saline in the second bath, and saline in the third bath were assigned to the SSS group. Muscles that were in saline in the first bath, saline in the second bath, and UCN2 in the third bath were assigned to the SSU group. […]

IVLSLDVPIGLLQILLEQARARAAREQATTNARILARVGHC-NH2 (C-terminus assumed) [UCN2, Urocortin 2]
glucose tolerance after acute UCN2 in UCN2.AAV animals (male mice [1]; UCN2.AAV animals injected acutely with UCN2): worsened glucose tolerance | glucose tolerance in oGTT (male mice [1]; oGTT twenty minutes after 1 mg/kg IP UCN2): glucose intolerance | plasma insulin levels during the oGTT versus vehicle (male mice [2]): No significant difference | effect of increasing doses in ITT (male mice [3]): decreasing rates of glucose uptake in response to insulin injection | insulin-stimulated glucose uptake in heart, WAT and SKM in vivo ([4]; 1 mg/kg IP UCN2, SKM by [3H]2DG): decreased insulin-stimulated glucose uptake | Glucose Uptake Rate, subcutaneous white adipose tissue (FDG) ([4]; UCN2 1 mg/kg IP +Insulin 0.75 IU): 0.1568 ng/g tissue/min and 0.1229 ng/g tissue/min and 0.1122 ng/g tissue/min and 0.1603 ng/g tissue/min and 0.108 ng/g tissue/min and 0.2201 ng/g tissue/min and 0.1273 ng/g tissue/min and 0.0896 ng/g tissue/min | Glucose Uptake Rate, subcutaneous white adipose tissue (FDG) ([4]; UCN2 1 mg/kg IP +Veh (no insulin)): 0.0619 ng/g tissue/min and 0.036 ng/g tissue/min and 0.07045 ng/g tissue/min and 0.06392 ng/g tissue/min and 0.06486 ng/g tissue/min and 0.04044 ng/g tissue/min and 0.02401 ng/g tissue/min and 0.1458 ng/g tissue/min | Food Intake (mice; single IP dose 1 mg/kg UCN2, next 24 h, individual animals (Fig. 2K), 1 mg/kg): 0.27 g and 0.3 g and 0.24 g and 0.15 g and 0.38 g and 0.46 g and 0.59 g | food intake following UCN2 dosing (mice; single dose 1 mg/kg IP): decrease in food intake | AKT1S1, IRS1 and AKT phosphorylation after UCN2 pre-treatment ex vivo [5]: increased AKT1S1, IRS1, and AKT phosphorylation
